From patent publication US9216968B2, “Heterocyclic derivative and pharmaceutical drug” (NIPPON SHINYAKU CO., LTD., priority 2011, dated 2015)
Counter-ions that a name gives are not always drawn.

Legend:
A549 cells = assay: Inhibition of PGE2 production in A549 cell (IL-1β stimulated); type: cell-based, human; conditions: IL-1β 5 ng/well, PGE2 in culture medium
Summary of the method: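 After IL-1β (5 ng/well) stimulation for 24 h at 37 °C, following a 60-min compound pretreatment in RPMI with 3% FBS, medium PGE2 (HTRF) and PGF2α (EIA) from human A549 cells were quantified. 100% activity set as IL-1β-induced minus basal production; IC50 calculated.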

human mPGES-1 = human mPGES-1 (Homo sapiens (Human), UniProt O14684); assay: mPGES-1 inhibiting activity (microsome fractions, PGE2 by HTRF); type: biochemical; conditions: microsomes from CHO-K1 cells transfected with human mPGES-1; PGH2 1 μM, 4° C., 60 seconds; read-out: mPGES-1 Inhibition IC50
Summary of the method: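 PGE2 formation read by HTRF after 60 s at 4 °C with 1 μM PGH2 substrate, following 20 min compound preincubation (1% DMSO) with human mPGES-1 microsomes from transfected CHO-K1 cells. Buffer: potassium phosphate, reduced glutathione, pH 7.4; IC50 from activity relative to enzyme-free blank.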

human mPGES-1, sequence (O14684 whole entry): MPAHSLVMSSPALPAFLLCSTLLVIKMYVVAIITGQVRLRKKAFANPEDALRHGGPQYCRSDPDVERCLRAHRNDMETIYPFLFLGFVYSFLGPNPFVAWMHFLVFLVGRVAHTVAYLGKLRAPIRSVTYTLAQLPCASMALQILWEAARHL

SMILES | IC50 (A549 cells; Homo sapiens, A549, 24 h) [nM] | IC50 (human mPGES-1) [nM] | IC50 (A549 cells; 24 hours, hydrochloride) [nM]
Cc1c(Cl)cccc1NC(=O)c1cc(NC(=O)c2ccccc2C(F)(F)F)cc2[nH]c(C(C)(C)CCl)nc12 [Example 57, N-(3-Chloro-2-methylphenyl)-2-(1-chloro-2-methylpropan-2-yl)-6-({[2-(trifluoromethyl)phenyl]carbonyl}amino)-1H-benzimidazole-4-carboxamide] | 16.8 | 0.5 | –
Cc1c(Cl)cccc1NC(=O)c1cc(NC(=O)c2ccccc2C(F)(F)F)cc2[nH]c(CN(C)C)nc12 [Example 58, N-(3-Chloro-2-methylphenyl)-2-[(dimethylamino)methyl]-6-({[2-(trifluoromethyl)phenyl]carbonyl}amino)-1H-benzimidazole-4-carboxamide hydrochloride] | 157 | 5.4 | –
Cc1c(Cl)cccc1NC(=O)c1cc(NC(=O)c2ccccc2C(F)(F)F)cc2[nH]c(CC(C)C)nc12 [Example 59, N-(3-Chloro-2-methylphenyl)-2-(2-methylpropyl)-6-({[2-(trifluoromethyl)phenyl]carbonyl}amino)-1H-benzimidazole-4-carboxamide hydrochloride] | 12.9 | 2.1 | –
CC(C)Cc1nc2c(C(=O)NCc3ccccc3C(F)(F)F)cc(NC(=O)c3ccccc3C(F)(F)F)cc2[nH]1 [Example 60, 2-(2-Methylpropyl)-N-[2-(trifluoromethyl)benzyl]-6-({[2-(trifluoromethyl)phenyl]carbonyl}amino)-1H-benzimidazole-4-carboxamide hydrochloride] | 8 | 19.8 | –
CNCc1nc2c(C(=O)Nc3cccc(Cl)c3C)cc(NC(=O)c3ccccc3C(F)(F)F)cc2[nH]1 [Example 62, N-(3-Chloro-2-methylphenyl)-2-[(methylamino)methyl]-6-({[2-(trifluoromethyl)phenyl]carbonyl}amino)-1H-benzimidazole-4-carboxamide dihydrochloride] | 51.6 | 11 | –
O=C(Nc1cc(C(=O)NCc2ccccc2C(F)(F)F)c2nc([C@H]3CCCO3)[nH]c2c1)c1ccccc1C(F)(F)F [Example 65, 2-[(2R)-Tetrahydrofuran-2-yl]-N-[2-(trifluoromethyl)benzyl]-6-({[2-(trifluoromethyl)phenyl]carbonyl}amino)-1H-benzimidazole-4-carboxamide] | 72.2 | 9.6 | –
Cc1c(Cl)cccc1NC(=O)c1cc(NC(=O)c2ccccc2C(F)(F)F)cc2[nH]c([C@@H]3CCCN3C(=O)OC(C)(C)C)nc12 [Example 69, tert-Butyl (2S)-2-{4-[(3-chloro-2-methylphenyl)carbamoyl]-6-({[2-(trifluoromethyl)phenyl]carbonyl}amino)-1H-benzimidazol-2-yl}pyrrolidine 1-carboxylate] | 21.6 | 10 | –
COCCOCc1nc2c(C(=O)Nc3cccc(Cl)c3C)cc(NC(=O)c3ccccc3C(F)(F)F)cc2[nH]1 [Example 74, N-(3-Chloro-2-methylphenyl)-2-[(2-methoxyethoxy)methyl]-6-({[2-(trifluoromethyl)phenyl]carbonyl}amino)-1H-benzimidazole-4-carboxamide hydrochloride] | 10.4 | 71.3 | –
COCC(C)(C)c1nc2c(C(=O)Nc3cccc(Cl)c3C)cc(NC(=O)c3ccccc3C(F)(F)F)cc2[nH]1 [Example 75, N-(3-Chloro-2-methylphenyl)-2-(1-methoxy-2-methylpropan-2-yl)-6-({[2-(trifluoromethyl)phenyl]carbonyl}amino)-1H-benzimidazole-4-carboxamide hydrochloride] | 19.7 | 31.7 | –
Cc1c(Cl)cccc1NC(=O)c1cc(NC(=O)c2ccccc2C(F)(F)F)cc2[nH]c(C(C)(C)C)nc12 [Example 76, 2-tert-Butyl-N-(3-chloro-2-methylphenyl)-6-({[2-(trifluoromethyl)phenyl]carbonyl}amino)-1H-benzimidazole-4-carboxamide hydrochloride] | 5.5 | 0.2 | –

Results, then the compound that gave them:

IC50 (A549 cells; Homo sapiens, A549, 24 h) [nM] | IC50 (human mPGES-1) [nM] | IC50 (A549 cells; 24 hours, hydrochloride) [nM] | SMILES
66.7 | 3.2 | – | Cc1c(Cl)cccc1NC(=O)c1cc(NC(=O)c2ccccc2C(F)(F)F)cc2[nH]c(C3CN(C(=O)OC(C)(C)C)C3)nc12 [Example 61, tert-Butyl 3-{4-[(3-chloro-2-methylphenyl)carbamoyl]-6-({[2-(trifluoromethyl)phenyl]carbonyl}amino)-1H-benzimidazol-2-yl}azetidine-1-carboxylate]
54.8 | 5.6 | – | CC(=O)OCc1nc2c(C(=O)Nc3cccc(Cl)c3C)cc(NC(=O)c3ccccc3C(F)(F)F)cc2[nH]1 [Example 63, {4-[(3-Chloro-2-methylphenyl)carbamoyl]-6-({[2-(trifluoromethyl)phenyl]carbonyl}amino)-1H-benzimidazol-2-yl}methyl acetate]
– | 2.3 | 20.1 | Cc1c(Cl)cccc1NC(=O)c1cc(NC(=O)c2ccccc2C(F)(F)F)cc2[nH]c([C@H]3CCCO3)nc12 [Example 64, N-(3-Chloro-2-methylphenyl)-2-[(2R)-tetrahydrofuran-2-yl]-6-({[2-(trifluoromethyl)phenyl]carbonyl}amino)-1H-benzimidazole-4-carboxamide hydrochloride]
> 10000 | 63.4 | – | CC(=O)N1CC(c2nc3c(C(=O)Nc4cccc(Cl)c4C)cc(NC(=O)c4ccccc4C(F)(F)F)cc3[nH]2)C1 [Example 68, 2-(1-Acetylazetidin-3-yl)-N-(3-chloro-2-methylphenyl)-6-({[2-(trifluoromethyl)phenyl]carbonyl}amino)-1H-benzimidazole-4-carboxamide hydrochloride]
147 | 4.6 | – | Cc1c(Cl)cccc1NC(=O)c1cc(NC(=O)c2ccccc2C(F)(F)F)cc2[nH]c([C@H]3CCCN3C(=O)OC(C)(C)C)nc12 [Example 70, tert-Butyl (2R)-2-{4-[(3-chloro-2-methylphenyl)carbamoyl]-6-({[2-(trifluoromethyl)phenyl]carbonyl}amino)-1H-benzimidazol-2-yl}pyrrolidine-1-carboxylate]
227 | 33.1 | – | Cc1c(Cl)cccc1NC(=O)c1cc(NC(=O)c2ccccc2C(F)(F)F)cc2[nH]c([C@@H]3CCCN3)nc12 [Example 71, N-(3-Chloro-2-methylphenyl)-2-[(2S)-pyrrolidin-2-yl]-6-({[2-(trifluoromethyl)phenyl]carbonyl}amino)-1H-benzimidazole-4-carboxamide dihydrochloride]
60 | 9.8 | – | Cc1c(Cl)cccc1NC(=O)c1cc(NC(=O)c2ccccc2C(F)(F)F)cc2[nH]c([C@@H]3CCCN3C)nc12 [Example 72, N-(3-Chloro-2-methylphenyl)-2-[(2S)-1-methylpyrrolidin-2-yl]-6-({[2-(trifluoromethyl)phenyl]carbonyl}amino)-1H-benzimidazole-4-carboxamide]
76.4 | 18.6 | – | CC(=O)N1CCC[C@H]1c1nc2c(C(=O)Nc3cccc(Cl)c3C)cc(NC(=O)c3ccccc3C(F)(F)F)cc2[nH]1 [Example 73, 2-[(2S)-1-Acetylpyrrolidin-2-yl]-N-(3-chloro-2-methylphenyl)-6-({[2-(trifluoromethyl)phenyl]carbonyl}amino)-1H-benzimidazole-4-carboxamide]
